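Assay format: 96-well plates, 48-hour exposure. Abbreviation: GI50, concentration required for 50% inhibition of growth.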 Active and inactive are the calls of the source. Rule as the data show it: active = GI50 up to about 1.1 µM and inactive = higher.
Assays:
Experiment in all cases: NCI anticancer screen, dose series, 48 h
786-0 = tested on: 786-0
A498 = tested on: A498
A549 = tested on: A549
ACHN = tested on: ACHN
CCRF-CEM = tested on: CCRF-CEM
COLO 205 = tested on: COLO 205
DLD-1 = tested on: DLD-1
DMS-114 = tested on: DMS-114
DMS-273 = tested on: DMS-273
EKVX = tested on: EKVX
HCC 2998 = tested on: HCC 2998
HCT-116 = tested on: HCT-116
HCT-15 = tested on: HCT-15
HL-60 = tested on: HL-60
HOP-18 = tested on: HOP-18
HOP-62 = tested on: HOP-62
HOP-92 = tested on: HOP-92
HT-29 = tested on: HT-29
IGROV-1 = tested on: IGROV-1
K562 = tested on: K562
KM-20L2 = tested on: KM-20L2
KM12 = tested on: KM12
LOX IMVI = tested on: LOX IMVI
LXFL 529 = tested on: LXFL 529
M14 = tested on: M14
M19-MEL = tested on: M19-MEL
Malme-3M = tested on: Malme-3M
NCI-H226 = tested on: NCI-H226
NCI-H23 = tested on: NCI-H23
NCI-H460 = tested on: NCI-H460
NCI-H522 = tested on: NCI-H522
OVCAR-3 = tested on: OVCAR-3
OVCAR-4 = tested on: OVCAR-4
OVCAR-5 = tested on: OVCAR-5
OVCAR-8 = tested on: OVCAR-8
RXF 393 = tested on: RXF 393
RXF 631 = tested on: RXF 631
SF-268 = tested on: SF-268
SF-295 = tested on: SF-295
SF-539 = tested on: SF-539
SK-MEL-28 = tested on: SK-MEL-28
SK-MEL-2 = tested on: SK-MEL-2
SK-MEL-5 = tested on: SK-MEL-5
SK-OV-3 = tested on: SK-OV-3
SN12C = tested on: SN12C
SNB-19 = tested on: SNB-19
SNB-75 = tested on: SNB-75
SNB-78 = tested on: SNB-78
SW-620 = tested on: SW-620
TK-10 = tested on: TK-10
U-251 = tested on: U-251
UACC-257 = tested on: UACC-257
UACC-62 = tested on: UACC-62
UO-31 = tested on: UO-31
XF498 = tested on: XF498
CAKI-1 = tested on: CAKI-1
MOLT-4 = tested on: MOLT-4
RPMI-8226 = tested on: RPMI-8226
SR = tested on: SR

`CC(=O)OCCOCNC(=S)N/N=C/c1cc([N+](=O)[O-])ccc1O` was tested, and the GI50 (786-0) was > 100 µM (inactive), the GI50 (A498) was > 100 µM (inactive) and the GI50 (A549) was > 100 µM (inactive). The GI50 (ACHN) was > 100 µM (inactive), the GI50 (CCRF-CEM) was 56.6 µM (inactive) and the GI50 (COLO 205) was 75 µM (inactive). The GI50 (DLD-1) was > 100 µM (inactive), the GI50 (DMS-114) was 30.7 µM (inactive) and the GI50 (DMS-273) was > 100 µM (inactive). For the same compound, the GI50 (EKVX) was > 100 µM (inactive), the GI50 (HCC 2998) was 72.1 µM (inactive) and the GI50 (HCT-116) was 64.3 µM (inactive). The GI50 (HCT-15) was > 100 µM, the GI50 (HL-60) was > 100 µM (inactive) and the GI50 (HOP-18) was > 100 µM (inactive). For the same compound, the GI50 (HOP-62) was > 100 µM (inactive), the GI50 (HOP-92) was > 100 µM (inactive) and the GI50 (HT-29) was > 100 µM (inactive). For the same compound, the GI50 (IGROV-1) was > 100 µM (inactive), the GI50 (K562) was > 100 µM (inactive) and the GI50 (KM-20L2) was 61.1 µM (inactive). For the same compound, the GI50 (KM12) was > 100 µM (inactive), the GI50 (LOX IMVI) was > 100 µM (inactive) and the GI50 (LXFL 529) was 93.8 µM (inactive). For the same compound, the GI50 (M14) was 86.7 µM (inactive), the GI50 (M19-MEL) was > 100 µM (inactive) and the GI50 (Malme-3M) was > 100 µM (inactive). For the same compound, the GI50 (NCI-H226) was > 100 µM (inactive), the GI50 (NCI-H23) was > 100 µM (inactive) and the GI50 (NCI-H460) was > 100 µM (inactive). The GI50 (NCI-H522) was 30.5 µM (inactive), the GI50 (OVCAR-3) was 42.5 µM (inactive) and the GI50 (OVCAR-4) was 84.5 µM (inactive). The GI50 (OVCAR-5) was > 100 µM (inactive), the GI50 (OVCAR-8) was 90.2 µM (inactive) and the GI50 (RXF 393) was > 100 µM (inactive). For the same compound, the GI50 (RXF 631) was > 100 µM (inactive), the GI50 (SF-268) was 77.4 µM (inactive) and the GI50 (SF-295) was > 100 µM (inactive). For the same compound, the GI50 (SF-539) was > 100 µM (inactive), the GI50 (SK-MEL-28) was > 100 µM (inactive) and the GI50 (SK-MEL-2) was > 100 µM (inactive). The GI50 (SK-MEL-5) was > 100 µM (inactive), the GI50 (SK-OV-3) was > 100 µM (inactive) and the GI50 (SN12C) was > 100 µM (inactive). The GI50 (SNB-19) was > 100 µM (inactive), the GI50 (SNB-75) was > 100 µM (inactive) and the GI50 (SNB-78) was > 100 µM (inactive). The GI50 (SW-620) was 84.9 µM (inactive), the GI50 (TK-10) was > 100 µM (inactive) and the GI50 (U-251) was > 100 µM (inactive). The GI50 (UACC-257) was > 100 µM (inactive), the GI50 (UACC-62) was 69.8 µM (inactive) and the GI50 (UO-31) was > 100 µM (inactive). For the same compound, the GI50 (XF498) was > 100 µM (inactive).

`OCC1OC(c2nc(C3=NCCCN3)cs2)C(O)C1O` (configuration not stated) was tested, and the GI50 (786-0) was > 100 µM (inactive), the GI50 (A498) was > 100 µM (inactive) and the GI50 (A549) was > 100 µM (inactive). For the same compound, the GI50 (ACHN) was > 100 µM (inactive), the GI50 (CAKI-1) was > 100 µM (inactive) and the GI50 (CCRF-CEM) was > 100 µM (inactive). For the same compound, the GI50 (COLO 205) was > 100 µM (inactive), the GI50 (DLD-1) was > 100 µM (inactive) and the GI50 (DMS-114) was > 100 µM (inactive). For the same compound, the GI50 (DMS-273) was > 100 µM (inactive), the GI50 (EKVX) was > 100 µM (inactive) and the GI50 (HCC 2998) was > 100 µM (inactive). The GI50 (HCT-116) was > 100 µM (inactive), the GI50 (HCT-15) was > 100 µM and the GI50 (HL-60) was > 100 µM (inactive). For the same compound, the GI50 (HOP-18) was > 100 µM (inactive), the GI50 (HOP-62) was > 100 µM (inactive) and the GI50 (HOP-92) was > 100 µM (inactive). For the same compound, the GI50 (HT-29) was > 100 µM (inactive), the GI50 (IGROV-1) was > 100 µM (inactive) and the GI50 (K562) was > 100 µM (inactive). For the same compound, the GI50 (KM-20L2) was > 100 µM (inactive), the GI50 (KM12) was > 10 µM (inactive) and the GI50 (LOX IMVI) was > 100 µM (inactive). For the same compound, the GI50 (LXFL 529) was > 100 µM (inactive), the GI50 (M14) was > 100 µM (inactive) and the GI50 (M19-MEL) was > 100 µM (inactive). For the same compound, the GI50 (MOLT-4) was > 100 µM (inactive), the GI50 (Malme-3M) was > 100 µM (inactive) and the GI50 (NCI-H226) was > 100 µM (inactive). For the same compound, the GI50 (NCI-H23) was > 100 µM (inactive), the GI50 (NCI-H460) was > 100 µM (inactive) and the GI50 (NCI-H522) was > 100 µM (inactive). The GI50 (OVCAR-3) was > 10 µM (inactive), the GI50 (OVCAR-4) was > 100 µM (inactive) and the GI50 (OVCAR-5) was > 100 µM (inactive). For the same compound, the GI50 (OVCAR-8) was > 100 µM (inactive), the GI50 (RPMI-8226) was > 100 µM (inactive) and the GI50 (RXF 631) was > 100 µM (inactive). The GI50 (SF-268) was > 100 µM (inactive), the GI50 (SF-295) was > 10 µM (inactive) and the GI50 (SF-539) was > 100 µM (inactive). For the same compound, the GI50 (SK-MEL-28) was > 100 µM (inactive), the GI50 (SK-MEL-2) was > 100 µM (inactive) and the GI50 (SK-OV-3) was > 100 µM (inactive). The GI50 (SN12C) was > 100 µM (inactive), the GI50 (SNB-19) was > 100 µM (inactive) and the GI50 (SNB-78) was > 100 µM (inactive). For the same compound, the GI50 (SW-620) was > 100 µM (inactive), the GI50 (TK-10) was > 100 µM (inactive) and the GI50 (U-251) was > 100 µM (inactive). The GI50 (UACC-257) was > 100 µM (inactive), the GI50 (UACC-62) was > 100 µM (inactive) and the GI50 (UO-31) was > 100 µM (inactive). The GI50 (XF498) was > 100 µM (inactive).

For `C=C1CCCC2OC(OC)CCC12` (configuration not stated), the GI50 (786-0) was > 100 µM (inactive), the GI50 (A498) was > 100 µM (inactive) and the GI50 (A549) was > 100 µM (inactive). For the same compound, the GI50 (ACHN) was > 100 µM (inactive), the GI50 (CAKI-1) was > 100 µM (inactive) and the GI50 (CCRF-CEM) was > 100 µM (inactive). For the same compound, the GI50 (COLO 205) was > 100 µM (inactive), the GI50 (DLD-1) was > 100 µM (inactive) and the GI50 (DMS-114) was > 100 µM (inactive). For the same compound, the GI50 (DMS-273) was > 100 µM (inactive), the GI50 (EKVX) was > 100 µM (inactive) and the GI50 (HCC 2998) was > 100 µM (inactive). For the same compound, the GI50 (HCT-116) was > 100 µM (inactive), the GI50 (HCT-15) was > 100 µM and the GI50 (HL-60) was > 100 µM (inactive). For the same compound, the GI50 (HOP-18) was > 100 µM (inactive), the GI50 (HOP-62) was > 100 µM (inactive) and the GI50 (HOP-92) was > 100 µM (inactive). The GI50 (HT-29) was > 100 µM (inactive), the GI50 (IGROV-1) was > 100 µM (inactive) and the GI50 (K562) was > 100 µM (inactive). The GI50 (KM-20L2) was > 100 µM (inactive), the GI50 (KM12) was > 100 µM (inactive) and the GI50 (LXFL 529) was > 100 µM (inactive). The GI50 (M14) was > 100 µM (inactive), the GI50 (M19-MEL) was > 100 µM (inactive) and the GI50 (MOLT-4) was > 100 µM (inactive). The GI50 (Malme-3M) was > 100 µM (inactive), the GI50 (NCI-H226) was > 100 µM (inactive) and the GI50 (NCI-H23) was > 100 µM (inactive). The GI50 (NCI-H460) was > 100 µM (inactive), the GI50 (NCI-H522) was > 100 µM (inactive) and the GI50 (OVCAR-3) was > 100 µM (inactive). The GI50 (OVCAR-4) was > 100 µM (inactive), the GI50 (OVCAR-5) was > 100 µM (inactive) and the GI50 (OVCAR-8) was > 100 µM (inactive). For the same compound, the GI50 (RPMI-8226) was > 100 µM (inactive), the GI50 (RXF 393) was > 100 µM (inactive) and the GI50 (RXF 631) was > 100 µM (inactive). For the same compound, the GI50 (SF-268) was > 100 µM (inactive), the GI50 (SF-295) was > 100 µM (inactive) and the GI50 (SF-539) was > 100 µM (inactive). The GI50 (SK-MEL-2) was > 100 µM (inactive), the GI50 (SK-MEL-5) was > 100 µM (inactive) and the GI50 (SK-OV-3) was > 100 µM (inactive). For the same compound, the GI50 (SN12C) was > 100 µM (inactive), the GI50 (SNB-19) was > 100 µM (inactive) and the GI50 (SNB-75) was > 100 µM (inactive). For the same compound, the GI50 (SNB-78) was > 100 µM (inactive), the GI50 (SR) was > 100 µM (inactive) and the GI50 (SW-620) was > 100 µM (inactive). For the same compound, the GI50 (TK-10) was > 100 µM (inactive), the GI50 (U-251) was > 100 µM (inactive) and the GI50 (UACC-257) was > 100 µM (inactive). The GI50 (UACC-62) was > 100 µM (inactive), the GI50 (UO-31) was > 100 µM (inactive) and the GI50 (XF498) was > 100 µM (inactive).

From ChEMBL document CHEMBL1201862, “PubChem BioAssay data set” (2004)
